From patent US12103919B2, “3-(5-oxy)-1-oxoisoindolin-2-yl)piperidine-2,6-dione derivatives and uses thereof” (NOVARTIS AG, priority 2021, dated 2024) come the findings set out here.

Each structure is given as a SMILES string. Read-outs that look alike come from different tables or passages of the source.

This test has as its target T1, WIZ (Homo sapiens, UniProt O95785+Q96SW2).
T1 construct: expressed in transfected cells
Put plainly: Quantification of WIZ protein levels in HiBit tag fusion protein assay (293T cells). Format: cell-based. On the set-up: Dmax: dose or concentration left out as unconfirmed. To be noted: for DC50: read-out: WIZ AC50. The gist of the method: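 293T cells stably carrying a single-copy HiBit-WIZ fusion were exposed to compounds for about 18 hours at 37° C., top concentration 25 μM, 10-point 5-fold series. Lysates were complemented with LgBit and luminescence was read. Amax is the DMSO-normalized, curve-fitted percentage of WIZ-HiBit remaining at 25 uM.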
(With HiBiT, luminescence reflects the tagged protein that the partner subunit can reach.)

T1 sequence (O95785 whole entry): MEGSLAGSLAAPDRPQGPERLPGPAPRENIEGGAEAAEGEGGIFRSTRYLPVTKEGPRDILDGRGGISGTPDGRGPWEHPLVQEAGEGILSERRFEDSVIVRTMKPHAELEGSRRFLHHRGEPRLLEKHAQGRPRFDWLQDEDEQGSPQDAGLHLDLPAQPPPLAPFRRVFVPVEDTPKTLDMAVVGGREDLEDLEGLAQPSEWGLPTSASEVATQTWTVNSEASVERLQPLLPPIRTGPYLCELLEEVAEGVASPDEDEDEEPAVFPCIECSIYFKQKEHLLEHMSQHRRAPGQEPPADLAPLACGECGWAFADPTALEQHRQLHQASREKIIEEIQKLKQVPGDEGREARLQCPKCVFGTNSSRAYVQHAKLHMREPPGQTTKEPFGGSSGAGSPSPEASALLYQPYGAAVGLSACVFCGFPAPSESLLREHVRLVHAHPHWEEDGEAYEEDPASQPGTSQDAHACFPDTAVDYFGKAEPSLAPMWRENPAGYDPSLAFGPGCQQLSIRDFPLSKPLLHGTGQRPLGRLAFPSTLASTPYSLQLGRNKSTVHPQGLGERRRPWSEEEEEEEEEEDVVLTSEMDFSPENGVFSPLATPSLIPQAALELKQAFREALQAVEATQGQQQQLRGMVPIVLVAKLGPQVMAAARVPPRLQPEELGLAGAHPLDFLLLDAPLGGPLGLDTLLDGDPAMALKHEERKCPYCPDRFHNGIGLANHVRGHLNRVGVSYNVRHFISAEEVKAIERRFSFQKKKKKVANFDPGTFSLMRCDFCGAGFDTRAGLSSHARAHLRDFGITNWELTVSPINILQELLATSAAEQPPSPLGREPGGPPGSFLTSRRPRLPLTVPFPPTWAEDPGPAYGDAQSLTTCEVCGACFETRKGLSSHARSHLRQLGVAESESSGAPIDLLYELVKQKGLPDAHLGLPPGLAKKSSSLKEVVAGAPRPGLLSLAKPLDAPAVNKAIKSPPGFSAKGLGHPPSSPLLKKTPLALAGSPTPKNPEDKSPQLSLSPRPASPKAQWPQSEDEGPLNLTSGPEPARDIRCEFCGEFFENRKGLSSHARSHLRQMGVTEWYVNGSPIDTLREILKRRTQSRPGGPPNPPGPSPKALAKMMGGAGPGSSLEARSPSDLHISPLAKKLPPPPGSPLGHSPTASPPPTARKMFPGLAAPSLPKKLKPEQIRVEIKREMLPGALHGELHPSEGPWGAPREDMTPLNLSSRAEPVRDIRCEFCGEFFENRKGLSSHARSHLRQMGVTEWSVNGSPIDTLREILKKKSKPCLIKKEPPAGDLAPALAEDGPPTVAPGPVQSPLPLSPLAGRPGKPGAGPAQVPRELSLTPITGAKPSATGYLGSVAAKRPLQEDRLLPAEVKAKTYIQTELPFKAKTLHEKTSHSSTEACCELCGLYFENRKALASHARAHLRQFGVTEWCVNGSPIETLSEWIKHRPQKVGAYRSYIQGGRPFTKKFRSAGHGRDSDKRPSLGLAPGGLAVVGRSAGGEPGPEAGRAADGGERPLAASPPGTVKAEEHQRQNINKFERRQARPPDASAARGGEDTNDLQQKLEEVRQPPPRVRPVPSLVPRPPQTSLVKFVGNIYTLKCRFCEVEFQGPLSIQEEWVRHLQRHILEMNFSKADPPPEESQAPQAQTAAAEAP
T1 sequence (Q96SW2 whole entry): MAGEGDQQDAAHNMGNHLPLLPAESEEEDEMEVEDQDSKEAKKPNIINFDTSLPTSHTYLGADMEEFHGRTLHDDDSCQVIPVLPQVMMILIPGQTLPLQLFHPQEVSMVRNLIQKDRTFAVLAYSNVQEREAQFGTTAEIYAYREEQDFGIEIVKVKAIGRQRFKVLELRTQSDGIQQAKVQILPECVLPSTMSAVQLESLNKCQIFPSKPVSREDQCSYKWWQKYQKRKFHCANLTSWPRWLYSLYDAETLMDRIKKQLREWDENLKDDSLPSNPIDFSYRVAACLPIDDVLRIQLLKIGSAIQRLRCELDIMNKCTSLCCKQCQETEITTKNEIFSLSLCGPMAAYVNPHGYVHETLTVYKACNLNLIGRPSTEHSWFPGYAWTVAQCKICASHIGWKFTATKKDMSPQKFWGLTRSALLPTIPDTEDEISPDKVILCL
T1 sequence (Q16531 whole entry partner): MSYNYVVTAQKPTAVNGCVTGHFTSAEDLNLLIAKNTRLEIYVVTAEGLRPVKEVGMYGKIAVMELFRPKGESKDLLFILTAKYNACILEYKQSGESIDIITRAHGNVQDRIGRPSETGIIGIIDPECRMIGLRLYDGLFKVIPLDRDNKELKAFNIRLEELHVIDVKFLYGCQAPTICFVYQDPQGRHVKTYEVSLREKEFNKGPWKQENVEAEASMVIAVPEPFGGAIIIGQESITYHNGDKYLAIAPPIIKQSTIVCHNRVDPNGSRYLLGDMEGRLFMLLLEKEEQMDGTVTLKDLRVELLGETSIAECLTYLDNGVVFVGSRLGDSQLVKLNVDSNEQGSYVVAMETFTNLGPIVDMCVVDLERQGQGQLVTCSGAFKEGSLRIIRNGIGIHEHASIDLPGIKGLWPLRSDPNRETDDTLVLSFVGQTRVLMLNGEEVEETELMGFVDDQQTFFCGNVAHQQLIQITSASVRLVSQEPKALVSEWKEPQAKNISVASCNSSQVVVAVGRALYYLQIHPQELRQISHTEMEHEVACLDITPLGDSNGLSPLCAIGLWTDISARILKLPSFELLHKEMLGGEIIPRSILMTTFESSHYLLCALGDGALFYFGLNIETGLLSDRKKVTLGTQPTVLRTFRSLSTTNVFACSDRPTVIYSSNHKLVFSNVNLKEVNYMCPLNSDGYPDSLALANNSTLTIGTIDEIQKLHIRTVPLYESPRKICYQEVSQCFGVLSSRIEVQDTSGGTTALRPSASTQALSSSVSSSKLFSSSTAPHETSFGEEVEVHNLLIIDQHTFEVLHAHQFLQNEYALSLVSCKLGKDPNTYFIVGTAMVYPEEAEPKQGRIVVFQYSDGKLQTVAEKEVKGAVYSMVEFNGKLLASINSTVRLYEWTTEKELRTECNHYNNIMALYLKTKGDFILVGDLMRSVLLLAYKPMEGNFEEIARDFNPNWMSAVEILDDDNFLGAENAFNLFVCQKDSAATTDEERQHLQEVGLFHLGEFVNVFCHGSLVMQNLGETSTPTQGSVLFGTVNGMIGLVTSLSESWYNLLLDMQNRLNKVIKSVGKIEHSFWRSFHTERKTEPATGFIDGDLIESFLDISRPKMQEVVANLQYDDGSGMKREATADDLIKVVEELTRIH

In the case of `CCN1CCC[C@@H](Oc2ccc3c(c2)CN(C2CCC(=O)NC2=O)C3=O)C1` (mixture of isomers) [Example 1, 3-(5-(((R)-1-ethylpiperidin-3-yl)oxy)-1-oxoisoindolin-2-yl)piperidine-2,6-dione], under “HEK-293T, read-out: % degradation of WIZ (100 − Amax)”, the Dmax was found to be 76%. For the same molecule, for the setting “HEK-293T, read-out: WIZ Amax”, the remaining activity at 25 µM came to 24%. Moreover, the DC50 by setting is: (WIZ HiBit assay in 293T cells, about 18 hours, 10-point 5-fold dilution, top 25 μM) 16 nM; (updated arithmatic mean over the number of repeats specified, assay of Example 89) 16 nM.
